Laboratory results reported in patent US8907076B2, “Mycobacterial peptide deformylase” (Council of Scientific and Industrial Research, priority 2006, dated 2014).

Biological target: mPDF (Mycobacterium tuberculosis peptide deformylase) (Mycobacterium tuberculosis, UniProt P9WIJ3)
Conditions: 500 mM, pre-incubation up to 2 h at 30° C., 70 ng protein/reaction
Experimental: The ability of mPDF to deformylate methionine was assessed in a spectrophotometric assay following the method described by Groche et al (Groche et al., Biochem. Biophys. Res. Commun. 246 342-346 1998) with slight modification. The assay was carried out in 50 μl reaction volume mPDF protein (usually 70 ng) in 1× assay buffer (100 mM phosphate buffer, pH 7.4 containing 100 μg/ml catalase) was incubated with the substrate (0 to 80 mM of N-formyl-Met-Ala, Sigma, USA) at 30° C. for 30 min. The reaction was terminated by addition of 50 μl of 4% HClO4 and further incubated (37° C. for 2 h) with TNBSA reagent (0.01% in 0.1M NaHCO3 buffer, pH 8.4). Following addition of 10% SDS (250 μl) and 1N HCl (125 μl), the highly chromogenic derivative generated due to reaction of primary amine with TNBSA was measured at 335 nm (Hermanson G, Bioconjugate techniques, Academic press, San Diego, Calif., 1996, pp, 112-113). The values obtained were corrected by subtracting the blank (all ingredients except mPDF enzyme) readings. Standard curves were prepared with known amounts (0-42.8 nmoles) of methionine.

Chain of mPDF (Mycobacterium tuberculosis peptide deformylase) (P9WIJ3 whole entry): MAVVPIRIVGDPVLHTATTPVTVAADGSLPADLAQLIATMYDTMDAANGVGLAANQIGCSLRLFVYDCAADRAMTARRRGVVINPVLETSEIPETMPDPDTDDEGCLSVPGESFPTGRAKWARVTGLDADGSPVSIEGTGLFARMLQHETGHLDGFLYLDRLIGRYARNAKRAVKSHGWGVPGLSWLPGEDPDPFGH

Structure (SMILES): OO [H2O2, hydrogen peroxide]
- effect on the deformylating ability of mPDF compared to the untreated control: did not show any significant effect
